In patent US20190062697A1, “Cell Differentiation Marker and its Uses” (Centre National De La Recherche Scientifique (CNRS), priority 2013, published 2019):

Assays:
Cdc25A = assay: Western blot analysis of Cdc25A protein levels in ES cells; assay type: cell-based, mouse
Method: Cells were UV-irradiated and incubated with cycloheximide (Cx) in absence or presence of Chk1 inhibitor SB218078, collected at the indicated times (min) and analyzed by western blotting. Cdc25A expression (#1) and β-actin (#2; as control) are shown.
FIG. 6J is a western blot analysis of Cdc25A protein expression in Luciferase (a.), β-TrCP (b.) and Cdh1 (c.) RNAi-transfected cells. Expression of Cdc25A (#1) and β-actin (#2) is shown.
Expression of CDC25A (#1), Cdc25C (#2) and β-actin (#3, as control) is represented.
FIG. 9B is a western blot analysis of Cdc25A protein levels in ES cells treated with increasing concentrations (in μM) of the DY131 agonist for 16 hours. Cdc25A (#1) and β-actin (#2, as control) protein expression is represented.
Cells were rinsed once in PBS and then incubated with ice cold lysis buffer (50 mM Tris-HCl pH 7.4, 100 mM NaCl, 50 mM NaF, 5 mM EDTA, 40 mM β-glycero-phosphate, 1% Triton X-100 and protease inhibitors) for 30 min on ice before scraping. Whole cell extracts were clarified by centrifugation at 12000 rcf for 10 min at 4° C. Protein concentration of the clarified lysates was estimated using BCA method (Pierce). Equal amount of protein was used for western blot analysis. All antibodies were incubated overnight at 4° C. in phosphate-buffered saline (PBS) containing 1% BSA and 0.1% Tween (Sigma). Antibodies used from Cell Signaling: Chk1S345P (2341), p53S15P (9284), γH2AX (2577), CDK2Y15P (9111), Myc-Tag (2276); Active caspase 3 (9961); Abcam: DNA polα (ab31777), H3 (ab1791), CDK2 (ab6538), PSTAIR (ab10345), GFP (ab290), MCM2 (ab4461); Suds3 (ab3740) Santa Cruz: Cdc45 (sc-20685), Cdc25A (sc-7389), Chk1 (sc-8408), Cyclin B1 (sc-245), Cdc25C (sc-327), Cdc25B (sc-65504), p21 (sc-6246), RhoA (sc-418); anti-goat IgG-HRP (sc-2020) Sigma: (PC10), β-actin (A1978), Cyclin A (C7410), Anti-Flag M2 (F1804), Oct4 (Chemicon, AB3209), and Millipore, Nestin (Ab353), H3S10P (Millipore 09-797). Wee1 (kindly provided by T. Lorca, CRBM Montpellier).

ES cells [1] = assay: Clonogenic assay of ES cells with alkaline phosphatase (AP) staining; assay type: cell-based, mouse; details: prolonged (7 days) RNAi knockdown, in the presence of LIF
Method: FIG. 12M is a histogram showing a clonogenic assay of ES cells upon prolonged control (1), Dub3 (2) or Cdc25a (3) targeting RNAi sequence. Cells were plated at clonal density in LIF-containing serum and stained for AP after 7 days. Columns show the percentage of alkaline phosphatase (AP) positive (dark grey) or negative (light grey) colonies. At least 150 colonies were scored.

Cdc25A mRNA = assay: qPCR quantification of Cdc25A mRNA in ES cells; assay type: cell-based, mouse
Method: FIG. 6I is a histogram showing qPCR quantification of Cdc25A normalised to multiple reference genes expressed as percentage of control. ES cells were transfected with control (Luc), β-TrCP (1), Cdh1 (2) or Dub3 (3) RNAi sequences and collected 48 hours after transfection. Bars represent the mean±SD of triplicate observations.
FIG. 7C is a histogram showing the qPCR quantification of Cdc25A mRNA normalised to multiple reference genes. ES cells were transfected with control (1), Dub3 (2) or Cdc25A (3) RNAi sequences.
(§1) FIG. 9A is a graph showing qPCR quantification of Cdc25A (curves with black squares) and Dub3 (curves with triangles) mRNA in ES cells treated with increasing concentration of the selective Esrrb and Esrrg agonist DY131 (indicated doses in μM) for 16 hours. Bars represent the fold induction±SD of triplicate observations.
Briefly, ES cells were maintained in Glasgow MEM BHK-21 (GMEM) supplemented with 10% fetal bovine serum, non-essential amino acids, L-glutamine, sodium pyruvate, β-mercapthethanol. NIH-3t3 cells were maintained in Dulbecco's modified eagle's medium (DMEM) supplemented with 10% fetal bovine serum, 2 mM glutamine and antibiotics. […]
(§2) Total RNA was isolated with TRIzol reagent (Invitrogen). […] Quantitative PCRs were performed using Lightcycler SYBR Green I Master mix (Roche) on Lightcycler apparatus (Roche). […]

Dub3 mRNA = assay: qPCR quantification of Dub3 mRNA in ES cells; assay type: cell-based, mouse; details: increasing dose of DY131, 16 hours
Method: as §1
FIG. 9C is a histogram showing qPCR quantification of Esrrb (1) and Dub3 (2) mRNA normalised to multiple reference genes expressed as percentage of control in presence of DY131. ES cells were transfected with control (Crtl) RNAi (white bars) or Esrrb specific RNAi sequence (black bars). Data are expressed as mean±SD (error bars) of multiple observations.
Briefly, ES cells were maintained in Glasgow MEM BHK-21 (GMEM) supplemented with 10% fetal bovine serum, non-essential amino acids, L-glutamine, sodium pyruvate, β-mercapthethanol. NIH-3t3 cells were maintained in Dulbecco's modified eagle's medium (DMEM) supplemented with 10% fetal bovine serum, 2 mM glutamine and antibiotics. The viruses-containing conditioned medium was incubated on exponentially growing NIH-3t3 cells for 24 hours in the presence of polybrene ([…]). […]
as §2

ES cells [2] = assay: FACS cell cycle analysis of asynchronously growing ES cells treated with roscovitine; assay type: cell-based, mouse; details: increasing concentration of roscovitine
Method: FIG. 5C is FACS analysis of asynchronously growing ES cells treated with increasing concentration of Roscovitine (in μM; Z-axis). Roscovitine is a potent and selective inhibitor of cyclin-dependent kinases, […]. X-axis represents DNA content (expressed in propidium iodide fluorescence) and Y-axis represents the number of cells.
Single-cell suspensions were prepared by trypsinisation and washed once in PBS. Cells were fixed in ice-cold 70% ethanol (−20° C.) and stored at −20° C. overnight. Following RNAse A treatment, total DNA was stained with propidium iodide (25 μg/ml). For BrdU uptake analysis, ES cells and NIH-3t3 cells were grown in the presence of 10 μM BrdU for respectively 10 and 30 minutes. The BrdU content was determined by reaction with a fluorescein isothiocyanate (FITC)-conjugated anti-BrdU antibody (BD Biosciences). Cells were analyzed with a FACScalibur flow cytometer using CellQuestPro software.

CDK2^Y15P = assay: Western blot of inhibitory CDK2 Tyr15 phosphorylation upon DNA damage in G1; assay type: cell-based, mouse; details: 24 hours knockdown, UV light in G1
From the text: FIG. 4E is a western blot showing the downregulation of Cdc25A expression by RNAi resulting in increased inhibitory CDK2Tyr15 phosphorylation upon DNA damage in G1. Control (a.) and Cdc25A (b.) RNAi-transfected cells were released from nocodazole and exposed (+) to UV-light in G1. Samples were collected at the indicated times and analyzed by western blotting with the indicated antibodies: Cdc25A (#1), Cdk2^Y15P (#2), Cyclin B1 (#3), Chk1^S345P (#4), Chk1 (#5) and β-actin (#6; as control).
Western blot signals of FIG. 4E were quantified by densitometry scanning and expressed as relative optical density (ROD) compared to Chk1 signal as loading control. Black bars represent cells treated with Cdc25A RNAi (a.) and white bars represent cells treated with control RNAi (b.).
Cells were rinsed once in PBS and then incubated with ice cold lysis buffer (50 mM Tris-HCl pH 7.4, 100 mM NaCl, 50 mM NaF, 5 mM EDTA, 40 mM β-glycero-phosphate, 1% Triton X-100 and protease inhibitors) for 30 min on ice before scraping. Whole cell extracts were clarified by centrifugation at 12000 rcf for 10 min at 4° C. Protein concentration of the clarified lysates was estimated using BCA method (Pierce). Equal amount of protein was used for western blot analysis. All antibodies were incubated overnight at 4° C. in phosphate-buffered saline (PBS) containing 1% BSA and 0.1% Tween (Sigma). […]

ES cells [3] = assay: BrdU pulse-labelling / FACS of synchronized ES cells UV-irradiated in G1 (S-phase entry); assay type: cell-based, mouse; details: 24 hours knockdown, UV light in G1, collected 2 hours after UV
Method: FIG. 4F is a histogram showing Cdc25A downregulation in G1 delay upon DNA damage. Control (a.) and Cdc25A (b.) RNAi-transfected cells were released from nocodazole and exposed to UV light in G1 (t=2) and collected 2 hours (t=4) after UV-(+) or mock-irradiation (−). Prior to collection cells were pulse-labelled with BrdU. Fraction (expressed as %) of diploid BrdU negative cells is plotted (data are represented as mean±SD). Statistical differences is indicated with a single asterisk (*) for P<0.05. Y-axis represents the percentage of cells in G1.
ES cells were arrested in prometaphase by nocodazole (Sigma) for 4-8 hours. After mitotic-shake off cells were washed 3 times in ice-cold PBS and dissolved in full ES growth medium. Cells were incubated in a humidified atmosphere of 5% CO2 at 37° C. for 45 minutes and placed at 30° C. for 1 hour to reduce S phase entry. Cells were mock- or UV-irradiated (6 J/m2) and incubated at 37° C. prior collection. To synchronise NIH-3t3 cells in G0 cells were grown to confluence and incubated for 2-3 days. Next, cells were washed, resuspended and split at 30% confluency. […]
Single-cell suspensions were prepared by trypsinisation and washed once in PBS. […] The BrdU content was determined by reaction with a fluorescein isothiocyanate (FITC)-conjugated anti-BrdU antibody (BD Biosciences). Cells were analyzed with a FACScalibur flow cytometer using CellQuestPro software.

[4] = tested on: deubiquitylating enzymes (DUBs); details: cited from earlier work
[5] = RNAi-mediated knockdown in ES cells
[6] = increasing dose of DY131, 16 hours, ES cells

5′-GGCUGUAAGAUGUGUGCUA-3′ (listed as RNA, chemistry not given here) [Dub3 RNAi]
reduction of Cdc25A protein abundance (Cdc25A; [5]): 3 fold
alkaline phosphatase (AP)-negative colonies (ES cells [1]): increase of alkaline phosphatase (AP)-negative colonies
Cdc25A mRNA level (Cdc25A mRNA; [5]): did not affect Cdc25A mRNA level

CCN(CC)c1ccc(/C=N/NC(=O)c2ccc(O)cc2)cc1 [DY131]
Dub3 gene expression (Dub3 mRNA): boosted Dub3 gene expression
Cdc25A protein abundance (Cdc25A; [6]): increased Cdc25A protein abundance
Cdc25A transcript level (Cdc25A mRNA; [6]): without affecting Cdc25A transcript level

O=C1NC(=O)c2c1c1c3ccccc3n3c1c1c2c2ccccc2n1C1CCC3O1 [SB218078]
Cdc25A destruction upon DNA damage (Cdc25A; UV-irradiated ES cells with cycloheximide, absence or presence of Chk1 inhibitor): rapid Cdc25A destruction upon DNA damage is Chk1-dependent

CC[C@H](CO)Nc1nc(NCc2ccccc2)c2ncn(C(C)C)c2n1 [roscovitine]
G1 cells (ES cells [2]): dose-dependent increase of G1 cells
fraction of S phase cells (ES cells [2]): reduced the fraction of S phase cells

5′-GAAAUUUCCCUGACGAGAA-3′ (listed as RNA, chemistry not given here) [Cdc25A RNAi]
CDK2^Y15P levels (CDK2^Y15P): increased CDK2^Y15P levels
alkaline phosphatase (AP)-negative colonies (ES cells [1]): A very similar result was also observed
BrdU-negative cells with 2N DNA content (ES cells [3]): significant, UV-dependent, increase of BrdU-negative cells with 2N DNA content

N#CSc1cc(SC#N)c(N)nc1N [PR-619]
accumulation of polyubiquitylated proteins in cells [4]: induces the accumulation of polyubiquitylated proteins in cells
proteasome activity [4]: without directly affecting proteasome activity
